This is an account of results in patent EP0472800A1, “Metoprololnicotinic acid ester, method of preparation and pharmaceutical use” (Sandmeier, Peter, Dr., priority 1990, dated 1992).

On the set-up of this data set: species or system Hunden. The following applies: dog, in vivo, 0 min. The text has this:
Die verhältnismässig einfache Synthese führt zu einer bemerkenswert hohen Ausbeute des erfinderischen Moleküls, der Metoprololnicotinsäure. Die an Hunden experimentierte Prodrugwirkung in drei verschiedenenen Dosen ergab folgende Retardwerte: (µg freie Base im Zielkompartiment)
Das Resultat zeigt, dass eine relativ hohe Konzentration im Plasma bis zu vier Stunden erwartet werden kann, was die deutlich retardierte Prodrugwirkung beweist. Die Dosis C zeigt unter anderem, dass auch kleine Konzentrationen einen langanhaltenden Spiegel zeigen.

Structures can show the parent of a compound that is named as a salt.

Turning to `COCCc1ccc(OCC(CNC(C)C)OC(=O)c2cccnc2)cc1` (racemic) [Metoprololnicotinsäure, Metoprololnicotinsäureester-HCl], the “freie Base im Zielkompartiment (Retardwerte)” value was found to be 0 µg.
